In PMC6008299, “Impact of race on dose selection of molecular-targeted agents in early-phase oncology trials” (British Journal of Cancer, 2018):

Legend:
Assay type in all cases: in vivo, human
[1] = Pharmacokinetics in US cohort (U101)
Procedure: (§1) In both studies, the PK profile of DS-7423 was characterised during cycle 1 on days 1 and 8. For PD analysis, glucose, C-peptide, and Akt phosphorylation were measured in platelet-rich plasma collected at predose, 1, 2, 4, 6, and 24 h after dosing on days 1 and 15. Tumour assessment was performed every two cycles using Response Evaluation Criteria in Solid Tumours (RECIST) version 1.1 in both studies. 18F-Fluoro-2-deoxy-D-glucose positron emission tomography ([18F]-FDG) was performed as an exploratory endpoint at baseline and on day 4.[10]
The data cut-off for the primary analysis occurred after all patients had either discontinued the study or completed 6 months of study drug treatment. Descriptive statistics were provided for selected demographic, safety, PK, and PD data by dose and time as appropriate. Descriptive statistics on continuous data included means, medians, standard deviations, and ranges, while categorical data were summarised using frequency counts and percentages. No inferential analysis to compare dose levels was performed due to limited sample sizes. The WinNonlin software was used for PK analysis.

advanced solid tumours [2] = assay: Tumour assessment RECIST 1.1, Japanese study; conditions: Japan; of 25 patients
Procedure: as §1

advanced solid tumours [3] = assay: Tumour assessment RECIST 1.1, both studies; conditions: either study
Procedure: as §1

tumour [18F]-FDG uptake [4] = assay: [18F]-FDG-PET metabolic response, US (Caucasian) patients; conditions: day 4
Procedure: as §1

tumour [18F]-FDG uptake [5] = assay: [18F]-FDG-PET metabolic response, Japanese (Asian) patients; conditions: day 4
Procedure: as §1

[6] = dose level 4, US cohort (n = 1)
[7] = dose level 8, US cohort (n = 1)
[8] = dose level 16, US cohort (n = 3)
[9] = dose level 160, US cohort (n = 4)
[10] = dose level 240, US cohort (n = 7)

CC(=O)N1CCN(c2nc3c(N4CCOCC4)nc(-c4cnc(N)nc4)nc3n2CC(F)(F)F)C[C@H]1C [DS-7423]
Mean AUCtau [1, 6]: 21.86 ng·h/mL
Mean Cmax [1, 6]: 4 ng/mL
T1/2 [1, 6]: 6 to 7 h
Tmax [1, 6]: 2 to 4 h
Mean AUCtau [1, 7]: 131 ng·h/mL
Mean Cmax [1, 7]: 20 ng/mL
T1/2 [1, 7]: 6 to 7 h
Tmax [1, 7]: 2 to 4 h
Mean AUCtau [1, 8]: 133.5 ng·h/mL
Mean Cmax [1, 8]: 20 ng/mL
T1/2 [1, 8]: 6 to 7 h
Tmax [1, 8]: 2 to 4 h
Mean AUCtau [1, 9]: 1180.5 ng·h/mL
Mean Cmax [1, 9]: 59 ng/mL
T1/2 [1, 9]: 6 to 7 h
Tmax [1, 9]: 2 to 4 h
Mean AUCtau [1, 10]: 1458.2 ng·h/mL
Mean Cmax [1, 10]: 92.0 ng/mL
T1/2 [1, 10]: 12 h
Tmax [1, 10]: 2 to 4 h
Patients with tumour shrinkage and durable disease control (advanced solid tumours [2]): 5
Response by RECIST 1.1 (advanced solid tumours [3]): no PR or CR
Patients with partial metabolic response ([18F]-FDG-PET) (tumour [18F]-FDG uptake [4]): 48.5%
Patients with partial metabolic response ([18F]-FDG-PET) (tumour [18F]-FDG uptake [4]; of 33 patients): 16
Patients with partial metabolic response ([18F]-FDG-PET) (tumour [18F]-FDG uptake [5]): 36.4%
Patients with partial metabolic response ([18F]-FDG-PET) (tumour [18F]-FDG uptake [5]; of 11 patients): 4
